Data from ChEMBL document CHEMBL1201861, “Genomics of Drug Sensitity in Cancer screening data, Wellcome Trust Sanger Institute”.
pIC50: −log10 of the molar value.

Columns and labels:
EVSA-T = experiment: cells; format: functional, cell-based, Homo sapiens; conditions: Homo sapiens, EVSA-T;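 also: growth inhibition of EVSA-T cells, read out with a cell viability assay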
Description: SANGER: Inhibition of human EVSA-T cell growth in a cell viability assay.

NCCIT = experiment: SANGER: Inhibition of human NCCIT cell growth in a cell viability assay.; format: functional, cell-based; conditions: Homo sapiens, NCCIT
NCI-H1522 = experiment: cells; format: functional, cell-based, Homo sapiens; conditions: Homo sapiens, NCI-H1522;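 also: growth inhibition of NCI-H1522 cells, read out with a cell viability assay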
Description: SANGER: Inhibition of human NCI-H1522 cell growth in a cell viability assay.

NCI-H322M = experiment: cells; format: functional, cell-based, Homo sapiens; conditions: Homo sapiens, NCI-H322M;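 also: cell viability assay measuring inhibition of growth of human NCI-H322M cells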
Description: SANGER: Inhibition of human NCI-H322M cell growth in a cell viability assay.

NCI-H64 = experiment: cells; format: functional, cell-based, Homo sapiens; conditions: Homo sapiens, NCI-H64;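 also: growth inhibition of NCI-H64 cells, read out with a cell viability assay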
Description: SANGER: Inhibition of human NCI-H64 cell growth in a cell viability assay.

RL95-2 = experiment: cells; format: functional, cell-based; conditions: Homo sapiens;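 also: RL95-2 growth inhibition determined through a cell viability readout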
Description: SANGER: Inhibition of human RL95-2 cell growth in a cell viability assay.

SIMA = experiment: cells; format: functional, cell-based, Homo sapiens; conditions: Homo sapiens, SIMA;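 also: growth inhibition of SIMA cells, measured with a cell viability readout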
Description: SANGER: Inhibition of human SIMA cell growth in a cell viability assay.

SR = experiment: cells; format: functional, cell-based, Homo sapiens; conditions: Homo sapiens, SR
Description: SANGER: Inhibition of human SR cell growth in a cell viability assay.

SU-DHL-1 = experiment: SANGER: Inhibition of human SU-DHL-1 cell growth in a cell viability assay.; format: functional, cell-based; conditions: Homo sapiens, SU-DHL-1
TE-441-T = experiment: cells; format: functional, cell-based, Homo sapiens; conditions: Homo sapiens, TE-441-T
Description: SANGER: Inhibition of human TE-441-T cell growth in a cell viability assay.

CESS = experiment: SANGER: Inhibition of human CESS cell growth in a cell viability assay.; format: functional, cell-based; conditions: Homo sapiens, CESS
CP50-MEL-B = experiment: cells; format: functional, cell-based, Homo sapiens; conditions: Homo sapiens, CP50-MEL-B;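 also: growth inhibition of the human cell line, measured with a cell viability read-out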
Description: SANGER: Inhibition of human CP50-MEL-B cell growth in a cell viability assay.

D-423MG = experiment: cells; format: functional, cell-based, Homo sapiens; conditions: Homo sapiens, D-423MG
Description: SANGER: Inhibition of human D-423MG cell growth in a cell viability assay.

EW-22 = experiment: cells; format: functional, cell-based, Homo sapiens; conditions: Homo sapiens, EW-22;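 also: growth inhibition of the EW-22 cell line, measured with a cell viability readout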
Description: SANGER: Inhibition of human EW-22 cell growth in a cell viability assay.

H-EMC-SS = experiment: cells; format: functional, cell-based, Homo sapiens; conditions: Homo sapiens, H-EMC-SS
Description: SANGER: Inhibition of human H-EMC-SS cell growth in a cell viability assay.

HCC1395 = experiment: cells; format: functional, cell-based, Homo sapiens; conditions: Homo sapiens, HCC1395;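 also: growth inhibition of HCC1395 cells, read out by a cell viability assay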
Description: SANGER: Inhibition of human HCC1395 cell growth in a cell viability assay.

HCC70 = experiment: cells; format: functional, cell-based, Homo sapiens; conditions: Homo sapiens, HCC70;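 also: cell viability assay measuring how strongly the compound suppresses proliferation of HCC70 cells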
Description: SANGER: Inhibition of human HCC70 cell growth in a cell viability assay.

HSC-3 = experiment: cells; format: functional, cell-based, Homo sapiens; conditions: Homo sapiens, HSC-3
Description: SANGER: Inhibition of human HSC-3 cell growth in a cell viability assay.

HSC-4 = experiment: cells; format: functional, cell-based, Homo sapiens; conditions: Homo sapiens, HSC-4;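 also: growth inhibition of human HSC-4 cells, read out with a cell viability assay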
Description: SANGER: Inhibition of human HSC-4 cell growth in a cell viability assay.

KYSE-150 cell line = experiment: cells; format: functional, cell-based, Homo sapiens; conditions: Homo sapiens, KYSE-150;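 also: growth inhibition of human KYSE-150 cells, read out with a cell viability assay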
Description: SANGER: Inhibition of human KYSE-150 cell growth in a cell viability assay.

KYSE-410 = experiment: cells; format: functional, cell-based, Homo sapiens; conditions: Homo sapiens, KYSE-410;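 also: growth inhibition of KYSE-410 cells, measured through a cell viability readout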
Description: SANGER: Inhibition of human KYSE-410 cell growth in a cell viability assay.

M14 = experiment: cells; format: functional, cell-based, Homo sapiens; conditions: Homo sapiens, M14;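 also: growth inhibition of M14 cells, read out with a cell viability assay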
Description: SANGER: Inhibition of human M14 cell growth in a cell viability assay.

MDA-MB-157 = experiment: cells; format: functional, cell-based, Homo sapiens; conditions: Homo sapiens, MDA-MB-157
Description: SANGER: Inhibition of human MDA-MB-157 cell growth in a cell viability assay.

MDA-MB-175-VII = experiment: cells; format: functional, cell-based, Homo sapiens; conditions: Homo sapiens, MDA-MB-175-VII
MDA-MB-361 = experiment: cells; format: functional, cell-based, Homo sapiens; conditions: Homo sapiens, MDA-MB-361
MDA-MB-453 = experiment: cells; format: functional, cell-based, Homo sapiens; conditions: Homo sapiens, MDA-MB-453
Description: SANGER: Inhibition of human MDA-MB-453 cell growth in a cell viability assay.

MEL-JUSO = experiment: cells; format: functional, cell-based, Homo sapiens; conditions: Homo sapiens, MEL-JUSO;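 also: growth inhibition of human MEL-JUSO cells, read out with a cell viability assay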
Description: SANGER: Inhibition of human MEL-JUSO cell growth in a cell viability assay.

NCI-H1437 = experiment: cells; format: functional, cell-based, Homo sapiens; conditions: Homo sapiens, NCI-H1437;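 also: growth inhibition of human NCI-H1437 cells, read out by a cell viability assay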
Description: SANGER: Inhibition of human NCI-H1437 cell growth in a cell viability assay.

NCI-H1703 = experiment: cells; format: functional, cell-based, Homo sapiens; conditions: Homo sapiens, NCI-H1703;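 also: growth inhibition of NCI-H1703 cells, read out via a cell viability assay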
Description: SANGER: Inhibition of human NCI-H1703 cell growth in a cell viability assay.

NCI-H2170 = experiment: cells; format: functional, cell-based, Homo sapiens; conditions: Homo sapiens, NCI-H2170;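 also: cell viability assay measuring growth inhibition of human NCI-H2170 cancer cells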
Description: SANGER: Inhibition of human NCI-H2170 cell growth in a cell viability assay.

NCI-H727 = experiment: cells; format: functional, cell-based, Homo sapiens; conditions: Homo sapiens, NCI-H727;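 also: growth inhibition of human NCI-H727 cells, read out with a cell viability assay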
Description: SANGER: Inhibition of human NCI-H727 cell growth in a cell viability assay.

NY = experiment: cells; format: functional, cell-based, Homo sapiens; conditions: Homo sapiens, NY
Description: SANGER: Inhibition of human NY cell growth in a cell viability assay.

PA-1 = experiment: cells; format: functional, cell-based, Homo sapiens; conditions: Homo sapiens, PA-1;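 also: IC50 for suppression of PA-1 cell proliferation, determined with a cell viability read-out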
Description: SANGER: Inhibition of human PA-1 cell growth in a cell viability assay.

SCC-25 = experiment: cells; format: functional, cell-based, Homo sapiens; conditions: Homo sapiens, SCC-25;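 also: growth inhibition of SCC-25 cells, measured with a cell viability assay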
Description: SANGER: Inhibition of human SCC-25 cell growth in a cell viability assay.

SKG-IIIa = experiment: cells; format: functional, cell-based, Homo sapiens; conditions: Homo sapiens, SKG-IIIa;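 also: cell growth inhibition, read out with a cell viability assay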
Description: SANGER: Inhibition of human SKG-IIIa cell growth in a cell viability assay.

SW 1116 = experiment: cells; format: functional, cell-based, Homo sapiens; conditions: Homo sapiens, SW 1116;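 also: growth inhibition of SW1116 cells, read out with a cell viability assay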
Description: SANGER: Inhibition of human SW1116 cell growth in a cell viability assay.

SW1990 = experiment: cells; format: functional, cell-based, Homo sapiens; conditions: Homo sapiens, SW1990
Description: SANGER: Inhibition of human SW1990 cell growth in a cell viability assay.

T-24 = experiment: cells; format: functional, cell-based, Homo sapiens; conditions: Homo sapiens, T-24;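 also: growth inhibition of T-24 cells, read out with a cell viability assay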
Description: SANGER: Inhibition of human T-24 cell growth in a cell viability assay.

T98G = experiment: cells; format: functional, cell-based, Homo sapiens; conditions: Homo sapiens, T98G;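 also: growth inhibition of T98G cells, read out by a cell viability assay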
Description: SANGER: Inhibition of human T98G cell growth in a cell viability assay.

5637 = experiment: cells; format: functional, cell-based, Homo sapiens; conditions: Homo sapiens
Description: SANGER: Inhibition of human 5637 cell growth in a cell viability assay.

AU565 = experiment: cells; format: functional, cell-based, Homo sapiens; conditions: Homo sapiens, AU565;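 also: cell viability assay measuring growth inhibition of human AU565 cells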
Description: SANGER: Inhibition of human AU565 cell growth in a cell viability assay.

CAL-120 = experiment: cells; format: functional, cell-based, Homo sapiens; conditions: Homo sapiens, CAL-120;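 also: cell growth inhibition, read out as cell viability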
Description: SANGER: Inhibition of human CAL-120 cell growth in a cell viability assay.

U2OS = experiment: cells; format: functional, cell-based, Homo sapiens, U-2-OS; conditions: Homo sapiens, U2OS;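 also: growth inhibition of human U-2-OS cells, determined with a cell viability assay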
Description: SANGER: Inhibition of human U-2-OS cell growth in a cell viability assay.

U-251 = experiment: cells; format: functional, cell-based, Homo sapiens; conditions: Homo sapiens, U-251;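 also: growth inhibition of human U-251 cells, read out through a cell viability assay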
Description: SANGER: Inhibition of human U251 cell growth in a cell viability assay.

UMC-11 = experiment: cells; format: functional, cell-based, Homo sapiens; conditions: Homo sapiens, UMC-11;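 also: growth inhibition of UMC-11 cells, read out with a cell viability assay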
Description: SANGER: Inhibition of human UMC-11 cell growth in a cell viability assay.

YH-13 = experiment: cells; format: functional, cell-based, Homo sapiens; conditions: Homo sapiens, YH-13;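 also: cell viability readout of growth suppression in the human YH-13 cell line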
Description: SANGER: Inhibition of human YH-13 cell growth in a cell viability assay.

ZR-75-30 = experiment: cells; format: functional, cell-based, Homo sapiens; conditions: Homo sapiens, ZR-75-30;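 also: growth inhibition of ZR-75-30 cells, measured with a cell viability readout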
Description: SANGER: Inhibition of human ZR-75-30 cell growth in a cell viability assay.

COLO-678 = experiment: cells; format: functional, cell-based, Homo sapiens; conditions: Homo sapiens, COLO-678
Description: SANGER: Inhibition of human COLO-678 cell growth in a cell viability assay.

CC[C@H](CO)Nc1nc(NCc2ccccc2)c2ncn(C(C)C)c2n1 [SELICICLIB]
pIC50 (EVSA-T): < 4.80 | pIC50 (NCCIT): 5.12 | pIC50 (NCI-H1522): < 4.80 | pIC50 (NCI-H322M): < 4.80 | pIC50 (NCI-H64): < 4.80 | pIC50 (RL95-2): < 4.80 | pIC50 (SIMA): < 4.80 | pIC50 (SR): < 4.80 | pIC50 (SU-DHL-1): < 4.80 | pIC50 (TE-441-T): < 4.80 | pIC50 (CESS): < 4.80

COc1cc2ncn(-c3cc(OCc4ccccc4C(F)(F)F)c(C(N)=O)s3)c2cc1OC [GW843682X]
pIC50 (EVSA-T): 6.63 | pIC50 (NCCIT): 7.22 | pIC50 (NCI-H1522): < 6.59 | pIC50 (NCI-H322M): < 6.59 | pIC50 (NCI-H64): < 6.59 | pIC50 (RL95-2): 7.95 | pIC50 (SIMA): < 6.59 | pIC50 (SR): 7.84 | pIC50 (SU-DHL-1): 7.03 | pIC50 (TE-441-T): < 6.59 | pIC50 (CESS): 7.88

C#Cc1cccc(Nc2ncnc3cc(OCCOC)c(OCCOC)cc23)c1 [ERLOTINIB]
pIC50 (EVSA-T): < 5.70 | pIC50 (NCCIT): < 5.70 | pIC50 (NCI-H322M): < 5.70 | pIC50 (NCI-H64): < 5.70 | pIC50 (RL95-2): < 5.70 | pIC50 (SIMA): < 5.70 | pIC50 (SR): < 5.70 | pIC50 (SU-DHL-1): < 5.70 | pIC50 (TE-441-T): < 5.70 | pIC50 (CESS): < 5.70

N[C@@H](CSC(c1ccccc1)(c1ccccc1)c1ccccc1)C(=O)O [S-TRITYL-L-CYSTEINE]
pIC50 (EVSA-T): 5.47 | pIC50 (NCCIT): 5.62 | pIC50 (NCI-H1522): < 5.29 | pIC50 (NCI-H322M): < 5.29 | pIC50 (NCI-H64): 5.46 | pIC50 (RL95-2): 6.22 | pIC50 (SIMA): < 5.29 | pIC50 (SR): 6.14 | pIC50 (SU-DHL-1): < 5.29 | pIC50 (TE-441-T): 5.32 | pIC50 (CESS): 6.22

Cc1ccc(-c2c(C(=O)CCl)n(CCCO)c3ncnc(N)c23)cc1
pIC50 (EVSA-T): 5.62 | pIC50 (NCCIT): < 5.40 | pIC50 (NCI-H1522): < 5.40 | pIC50 (NCI-H322M): < 5.40 | pIC50 (NCI-H64): < 5.40 | pIC50 (RL95-2): < 5.40 | pIC50 (SIMA): < 5.40 | pIC50 (SR): < 5.40 | pIC50 (SU-DHL-1): < 5.40 | pIC50 (TE-441-T): < 5.40 | pIC50 (CESS): < 5.40

COc1cc(N2CCN(C)CC2)ccc1Nc1ncc2c(n1)N(C)c1ccccc1C(=O)N2C
pIC50 (EVSA-T): < 5.10 | pIC50 (NCCIT): 5.38 | pIC50 (NCI-H1522): < 5.10 | pIC50 (NCI-H322M): < 5.10 | pIC50 (NCI-H64): < 5.10 | pIC50 (RL95-2): < 5.10 | pIC50 (SIMA): < 5.10 | pIC50 (SR): 5.19 | pIC50 (SU-DHL-1): < 5.10 | pIC50 (TE-441-T): < 5.10 | pIC50 (CESS): 5.11

CC(=O)O[C@H]1C(=O)[C@@]2(C)[C@H]([C@H](OC(=O)c3ccccc3)[C@]3(O)C[C@H](OC(=O)[C@H](O)[C@@H](NC(=O)c4ccccc4)c4ccccc4)C(C)=C1C3(C)C)[C@]1(OC(C)=O)CO[C@@H]1C[C@@H]2O [PACLITAXEL]
pIC50 (EVSA-T): 7.41 | pIC50 (NCCIT): 7.75 | pIC50 (NCI-H1522): < 6.99 | pIC50 (NCI-H322M): < 6.99 | pIC50 (NCI-H64): 7.41 | pIC50 (RL95-2): 9.18 | pIC50 (SIMA): < 6.99 | pIC50 (SR): 7.99 | pIC50 (SU-DHL-1): < 6.99 | pIC50 (TE-441-T): < 6.99 | pIC50 (CESS): 8.13

COc1cc(-c2nn([C@H]3CC[C@H](N4CCN(C(C)=O)CC4)CC3)c3ncnc(N)c23)ccc1NC(=O)c1cc2ccccc2n1C
pIC50 (EVSA-T): < 5.29 | pIC50 (NCCIT): < 5.29 | pIC50 (NCI-H1522): < 5.29 | pIC50 (NCI-H322M): < 5.29 | pIC50 (NCI-H64): < 5.29 | pIC50 (RL95-2): 6.42 | pIC50 (SIMA): < 5.29 | pIC50 (SR): < 5.29 | pIC50 (SU-DHL-1): < 5.29 | pIC50 (TE-441-T): < 5.29 | pIC50 (CESS): < 5.29

CC(C)c1ccccc1Cc1cc(C(=O)Nc2ccc(S(=O)(=O)c3ccccc3C(C)(C)C)cc2)c(O)c(O)c1O
pIC50 (CP50-MEL-B): 7.16 | pIC50 (D-423MG): 6.33 | pIC50 (EVSA-T): 6.85 | pIC50 (EW-22): 6.55 | pIC50 (H-EMC-SS): 6.42 | pIC50 (HCC1395): 5.15 | pIC50 (HCC70): 6.07 | pIC50 (HSC-3): 6.54 | pIC50 (HSC-4): 6.67 | pIC50 (KYSE-150 cell line): 6.33 | pIC50 (KYSE-410): 6.06 | pIC50 (M14): 5.55 | pIC50 (MDA-MB-157): 6.08 | pIC50 (MDA-MB-175-VII): 6.35 | pIC50 (MDA-MB-361): 6.65 | pIC50 (MDA-MB-453): 6.82 | pIC50 (MEL-JUSO): 6.36 | pIC50 (NCI-H1437): 6.27 | pIC50 (NCI-H1703): 6.66 | pIC50 (NCI-H2170): 6.00 | pIC50 (NCI-H727): 6.03 | pIC50 (NY): 6.75 | pIC50 (PA-1): 6.87 | pIC50 (SCC-25): 6.28 | pIC50 (SIMA): 6.18 | pIC50 (SKG-IIIa): 6.24 | pIC50 (SW 1116): 5.07 | pIC50 (SW1990): 5.78 | pIC50 (T-24): 6.53 | pIC50 (T98G): 6.22 | pIC50 5637: 6.26 | pIC50 (AU565): 6.45 | pIC50 (CAL-120): 6.32 | pIC50 (U2OS): 6.26 | pIC50 (U-251): 6.41 | pIC50 (UMC-11): 5.88 | pIC50 (YH-13): 7.15 | pIC50 (ZR-75-30): 5.85 | pIC50 (COLO-678): 5.48

CCN(CC)CCNC(=O)c1c(C)[nH]c(/C=C2\C(=O)Nc3ccc(F)cc32)c1C [SUNITINIB]
pIC50 (EVSA-T): < 5.10 | pIC50 (NCCIT): < 5.10 | pIC50 (NCI-H1522): < 5.10 | pIC50 (NCI-H322M): < 5.10 | pIC50 (NCI-H64): < 5.10 | pIC50 (RL95-2): 5.68 | pIC50 (SIMA): < 5.10 | pIC50 (SR): 5.81 | pIC50 (SU-DHL-1): 5.32 | pIC50 (TE-441-T): < 5.10 | pIC50 (CESS): 5.15
